Values of other authors in PubChem BioAssay AID1259409 (Chemical Carcinogenesis Research Information System (CCRIS), 2018).
Values joined by “and” are separate entries in the source; they are usually repeats but may differ in a detail not shown here. Identical values can stand only once.

Test system: rodent chemically induced tumor inhibition, incidence and multiplicity
Experiment: CCRIS tumor inhibitor studies
Conditions: Dose [Inhibitor]: 0

For `CC(C)=CC[C@@H](O)C1=CC(=O)c2c(O)ccc(O)c2C1=O`, the “tumour outcome (control, treated, inhibition, significance)” value (Carcinogen: AZOXYMETHANE, 25843-45-2, 0.02% IN DIET IN WK 1-3 OF STUDY FOLLOWED BY BASAL DIET FOR DURATION OF STUDY (STUDY DURATION: 1 YR), Route [Inhibitor]: ORAL, Species: RAT, Strain/Sex: F344/MALE, Target Tissue: Type of Lesion: LARGE INTESTINE: ADENOCARCINOMA, Dose [Carcinogen]: 15 MG/KG BW 1/WK IN WK 1 AND 2 OF STUDY, Promoter: NONE USED) is given as 13/27 (48%), 6/20 (30%), 38%, not significant, the “tumour outcome (control, treated, inhibition, significance)” value (Carcinogen: AZOXYMETHANE, 25843-45-2, 0.02% IN DIET IN WK 1-3 OF STUDY FOLLOWED BY BASAL DIET FOR DURATION OF STUDY (STUDY DURATION: 1 YR), Route [Inhibitor]: ORAL, Species: RAT, Strain/Sex: F344/MALE, Target Tissue: Type of Lesion: LARGE INTESTINE: ADENOMA, Dose [Carcinogen]: 15 MG/KG BW 1/WK IN WK 1 AND 2 OF STUDY, Promoter: NONE USED) is given as 6/27 (22%), 4/20 (20%), 9%, not significant and the “tumour outcome (control, treated, inhibition, significance)” value (Carcinogen: AZOXYMETHANE, 25843-45-2, 0.02% IN DIET IN WK 1-3 OF STUDY FOLLOWED BY BASAL DIET FOR DURATION OF STUDY (STUDY DURATION: 1 YR), Route [Inhibitor]: ORAL, Species: RAT, Strain/Sex: F344/MALE, Target Tissue: Type of Lesion: SMALL INTESTINE: ADENOCARCINOMA, Dose [Carcinogen]: 15 MG/KG BW 1/WK IN WK 1 AND 2 OF STUDY, Promoter: NONE USED) is given as 6/27 (22%), 1/20 (5%), 77%, not significant.

For `CC(=O)O[C@H]1CC(C)(C)C(=C=C/C(C)=C/C=C/C(C)=C/C=C/C=C(C)/C=C/C=C(\C)C(=O)C[C@@]23O[C@]2(C)C[C@@H](O)CC3(C)C)[C@](C)(O)C1`, the “tumour outcome (control, treated, inhibition, significance)” value (Carcinogen: N-ETHYL-N'-NITRO-N-NITROSOGUANIDINE, 70-25-7, 0.005% IN DRINKING WATER (DISSOLVED IN 50 MG/ML DMSO) FOR 4 WK BEGINNING POST CARCINOGEN TREATMENT FOLLOWED BY 12 WK, Route [Inhibitor]: ORAL, Species: MOUSE, Strain/Sex: C57BL/MALE, Target Tissue: Type of Lesion: DUODENUM: TUMORS, Dose [Carcinogen]: 100 MG/L IN DRINKING WATER AD LIBITUM FOR 4 WK, Promoter: NONE USED) is listed as 14/28 (78%), 13/20 (65%), 17%, not significant, the “tumour outcome (control, treated, inhibition, significance)” value (Carcinogen: N-ETHYL-N'-NITRO-N-NITROSOGUANIDINE, 70-25-7, 0.005% IN DRINKING WATER (DISSOLVED IN 50 MG/ML DMSO) FOR 16 WK BEGINNING POST CARCINOGEN TREATMENT (STUDY DURATION:, Route [Inhibitor]: ORAL, Species: MOUSE, Strain/Sex: C57BL/MALE, Target Tissue: Type of Lesion: DUODENUM: TUMORS, Dose [Carcinogen]: 100 MG/L IN DRINKING WATER AD LIBITUM FOR 4 WK, Promoter: NONE USED) is listed as 14/21 (67%), 7/20 (35%), 48%, p<0.05 and 14/28 (78%), 6/20 (30%), 62%, p<0.005 and the “tumour outcome (control, treated, inhibition, significance)” value (Carcinogen: N-ETHYL-N'-NITRO-N-NITROSOGUANIDINE, 4245-77-6, 0.005% IN DRINKING WATER BEGINNING POST CARCINOGEN TREATMENT AND CONTINUING FOR 16 WK (STUDY DURATION: 20 WK), Route [Inhibitor]: ORAL, Species: MOUSE, Strain/Sex: C57BL/MALE, Target Tissue: Type of Lesion: DUODENUM: TUMOR, Dose [Carcinogen]: 100 MG/L DRINKING WATER FOR 4 WK, Promoter: NONE USED) is listed as 14/21 (67%), 7/20 (35%), 48%, p<0.05.

For `O=S(=O)([O-])[O-].O=S(=O)([O-])[O-].O=S(=O)([O-])[O-].[Fe+3].[Fe+3]`, the “tumour outcome (control, treated, inhibition, significance)” value (15.5 UMOL (FE) INJECTED WITH CARCINOGEN INTO THIGH OF BOTH HIND LIMBS (STUDY DURATION: 79 WK), Route [Inhibitor]: INTRAMUSCULAR, Species: RAT, Strain/Sex: F344/MALE, Target Tissue: Type of Lesion: INJECTION SITE: SARCOMA, Dose [Carcinogen]: 2.5 MG PER SITE INJECTED INTO THIGH OF BOTH HIND LIMBS ONCE, Promoter: NONE USED) is given as 100%, 98%, 2%, not significant, the “tumour outcome (control, treated, inhibition, significance)” value (30 UMOL (FE) INJECTED WITH CARCINOGEN INTO THIGH OF BOTH HIND LIMBS (STUDY DURATION: 79 WK), Route [Inhibitor]: INTRAMUSCULAR, Species: RAT, Strain/Sex: F344/MALE, Target Tissue: Type of Lesion: INJECTION SITE: SARCOMA, Dose [Carcinogen]: 2.5 MG PER SITE INJECTED INTO THIGH OF BOTH HIND LIMBS ONCE, Promoter: NONE USED) is given as 100%, 45%, 55%, not calculated and the “tumour outcome (control, treated, inhibition, significance)” value (60 UMOL (FE) INJECTED INTO NAPE OF NECK (STUDY DURATION: 79 WK), Route [Inhibitor]: SUBCUTANEOUS, Species: RAT, Strain/Sex: F344/MALE, Target Tissue: Type of Lesion: INJECTION SITE: SARCOMA, Dose [Carcinogen]: 2.5 MG PER SITE INJECTED INTO THIGH OF BOTH HIND LIMBS, Promoter: NONE USED) is given as 100%, 100%, 0%, not significant. For the same molecule, the “tumour outcome (control, treated, inhibition, significance)” value (60 UMOL (FE) INJECTED WITH CARCINOGEN INTO THIGH OF BOTH HIND LIMBS (STUDY DURATION: 79 WK), Route [Inhibitor]: INTRAMUSCULAR, Species: RAT, Strain/Sex: F344/MALE, Target Tissue: Type of Lesion: INJECTION SITE: SARCOMA, Dose [Carcinogen]: 2.5 MG PER SITE INJECTED INTO THIGH OF BOTH HIND LIMBS ONCE, Promoter: NONE USED) was 100%, 35%, 65%, not calculated.

For `CC(C)=CCc1cc(/C=C/C(=O)O)cc(CC=C(C)C)c1O`, the “tumour outcome (control, treated, inhibition, significance)” value (Carcinogen: FERRIC NITRILOTRIACETATE, 16448-54-7, 350 UG/MOUSE IN OLIVE OIL TWICE/D FOR 5 D/WK FOR 1 YR BEGINNING POST CARCINOGEN TREATMENT (STUDY DURATION: 1 YR AND 8, Route [Inhibitor]: ORAL, Species: MOUSE, Strain/Sex: DDY/MALE, Target Tissue: Type of Lesion: KIDNEY: CARCINOMA, Dose [Carcinogen]: 43.6 MG/KG BW/D TWICE/WK FOR FIRST 8 WK, Promoter: NONE) is listed as 1/9 (11%), 0/6 (0%), 100%, not significant.
